Experimental data reported in patent US9839618B2, “Compositions and methods relating to proliferative diseases” (The Penn State Research Foundation, priority 2010, dated 2017).
Where two headings read alike, the source gives them in different places.

Tests used:
[1] = tested on: 1205 Lu metastatic melanoma cells; assay: MTS assay viability IC50, 1205 Lu; format: cell-based, human; conditions: for IC50: Homo sapiens, 1205Lu
Experimental: (§1) The efficacy of leelamine to kill other cancer types is measured and the IC50 for cell lines derived from carcinomas of breast, lung, prostate, connective tissue, pancreas and colon determined. The MTS assay as described in Sharma, A. et al., Clin Cancer Res, 2009, 15:1674-85; and Madhunapantula, S. V. et al., Mol Cancer Ther, 2008, 7:1297-308 is used to establish the IC50 at 24, 48 and 72 hours of leelamine treatment for normal human epidermal melanocytes (FOM103), normal skin fibroblast cells (FF2441), normal skin keratinocytes (HFK) and compared to melanocytic lesion cells from the radial-, vertical- and metastatic melanoma stages. 5×10^3 cells per well in 100 μL of media are plated and grown in a 96-well plate for 48 to 72 hours and treated with either DMSO vehicle control or 0.62 to 40 μmol/L of leelamine for 24, 48 or 72 hours. IC50 values for each compound in μmol/L for respective cell lines are measured from three independent experiments using GraphPad Prism version 4.01 (GraphPad Software, La Jolla, Calif.). Leelamine is found to be not toxic to normal cells and effective to kill melanoma cells as well as non-melanoma cancer cells as shown in Table 1 in FIG. 20. Leelamine is 3- to 4-fold more specific at killing metastatic melanoma than normal cells, supporting cancer therapeutic utility at concentrations<2 μmol/L.
(§2) 5×10^3 cells per well in 100 μL of media are plated and grown in a 96-well plate for 48 to 72 hours and treated with either DMSO vehicle control or 0.62 to 40 μmol/L of leelamine for 24, 48 or 72 hours. IC50 values for each compound in μmol/L for respective cell lines are measured from three independent experiments using GraphPad Prism version 4.01 (GraphPad Software, La Jolla, Calif.).
(§3) The IC50 and effect of liposomal preparations of leelamine on viability of normal human melanocytes, fibroblasts and melanoma cells UACC 903 and 1205 Lu are measured using the MTS assay (Promega, Madison, Wis.). Empty liposomes or liposomes containing abietic acid are used as controls. 5×10^3 cells per well in 100 μL of media are plated and grown in a 96-well plate for 48 or 72 hours for melanoma and normal cell lines, respectively. The cells are then treated with 0.62 to 40 μmol/L of liposome alone, a liposomal preparation of abietic acid, or with Nanolipolee-007 for 24 hours. IC50 values for each liposome in μmol/L for respective cell lines are measured from three independent experiments using GraphPad Prism version 4.01 (GraphPad Software, La Jolla, Calif.). Nanolipolee-007 retains the growth inhibitory activity of leelamine in killing melanoma cells in culture and specifically kills melanoma cells compared to normal cells, FIG. 24.
(§4) Dehydroabietylamine, its N-substituted derivatives and the corresponding dihydroabietylamine and its N-substituted derivatives are tested for their capability to inhibit cell growth of cancer cell lines, including melanoma (UACC 903, 1205Lu), breast (MCF-7), fibrosarcoma (HT-1080), colon (Caco-2), and prostate (PC-3) cancer cell lines. Viability and IC50 of normal human fibroblasts and cell lines from melanoma and other malignancies following treatment with all the agents are measured using the MTS assay (Promega, Madison, Wis.). Human fibroblast FF2441 cells, metastatic melanoma cell lines 1205 Lu and UACC 903 as well as cancer cell lines representing sarcoma (HT-1080), prostate (PC-3, LNCaP), breast (MCF-7) and lung (A-549) are maintained in DMEM (Invitrogen, Carlsbad, Calif.) supplemented with 10% FBS (Hyclone, Logan, Utah) in a 5% CO2 atmosphere, humidified 37° C. incubator. 5×10^3 cells per well in 100 μL of media are plated and grown in a 96-well plate for 48 to 72 h and treated with either DMSO vehicle control or 0.62 to 40 μmol/L for 24, 48 or 72 h. IC50 values for each compound in […] for respective cell lines are measured from three independent experiments using GraphPad Prism version 4.01 (GraphPad Software, La Jolla, Calif.). […]

cancer cell line = assay: MTS assay viability IC50, A-459; format: cell-based; conditions: A459; Table 5; read-out: IC50 Liver (A-459)
Experimental: (§5) Dehydroabietylamine, its N-substituted derivatives and the corresponding dihydroabietylamine and its N-substituted derivatives are tested for their capability to inhibit cell growth of cancer cell lines, including melanoma (UACC 903, 1205Lu), breast (MCF-7), fibrosarcoma (HT-1080), colon (Caco-2), and prostate (PC-3) cancer cell lines. Viability and IC50 of normal human fibroblasts and cell lines from melanoma and other malignancies following treatment with all the agents are measured using the MTS assay (Promega, Madison, Wis.). Human fibroblast FF2441 cells, metastatic melanoma cell lines 1205 Lu and UACC 903 as well as cancer cell lines representing sarcoma (HT-1080), prostate (PC-3, LNCaP), breast (MCF-7) and lung (A-549) are maintained in DMEM (Invitrogen, Carlsbad, Calif.) supplemented with 10% FBS (Hyclone, Logan, Utah) in a 5% CO2 atmosphere, humidified 37° C. incubator. 5×10^3 cells per well in 100 μL of media are plated and grown in a 96-well plate for 48 to 72 h and treated with either DMSO vehicle control or 0.62 to 40 μmol/L for 24, 48 or 72 h. IC50 values for each compound in […] for respective cell lines are measured from three independent experiments using GraphPad Prism version 4.01 (GraphPad Software, La Jolla, Calif.). FIG. 52 is a graph showing IC50 values for leelamine and compounds 4a, 4b and 5a in treated fibroblasts (FF2441) compared to melanoma cells. Selectivity ratio here is defined as ratio of activity against fibroblasts compared to activity against melanoma cells. Leelamine is relatively selective with a ratio of >6 and >4 for UACC903 and 1205Lu melanoma cells. The selectivity ratio of compound 4a is ˜4 and ˜3 for UACC903 and 1205Lu and for compound 4b is ˜4 for both cell lines. The selectivity ratio of compound 5a is ˜4 for UACC903 and >2 for 1205Lu cells.

[2] = tested on: Breast (MCF-7) cancer cell line; assay: MTS assay viability IC50, MCF-7; format: cell-based; conditions: Homo sapiens, MCF7; Table 5
Experimental: as §5

[3] = tested on: FF2441 normal human fibroblasts; assay: MTS assay viability IC50, normal fibroblasts; format: cell-based; conditions: Homo sapiens, FF2441; Table 5; read-out: IC50 Fibroblast FF2441
Experimental: as §1
as §2, with “Calif.). […]” for “Calif.).”
as §5

[4] = tested on: UACC 903 metastatic melanoma cells; assay: MTS assay viability IC50, UACC 903; format: cell-based, human; conditions: for IC50: Homo sapiens, UACC-903
Experimental: as §1, §2, §3, §4

[5] = tested on: Fibrosarcoma (HT-1080) cancer cell line; assay: MTS assay viability IC50, HT-1080; format: cell-based; conditions: Homo sapiens, Table 5, read-out: IC50 Fibro Sarcoma (HT-1080)
Experimental: as §5

[6] = tested on: Prostate (PC-3) cancer cell line; assay: MTS assay viability IC50, PC-3; format: cell-based; conditions: Table 5
Experimental: as §5

[7] = tested on: Prostate (LnCap) cancer cell line; assay: MTS assay viability IC50, LnCap; format: cell-based; conditions: Homo sapiens, Table 5
Experimental: as §5

[8] = activity against fibroblasts FF2441 compared to melanoma cells

IC50 ([1]; Example 8, read-out: IC50 1205Lu): 2380 nM | IC50 ([1]; Table 4, read-out: IC50 Metastatic Melanoma Cell line 1205Lu): 2380 ± 140 nM | IC50 ([1]; Table 6, read-out: IC50 Metastatic melanoma 1205 Lu): 2380 ± 140 nM | IC50 (cancer cell line): 15.3 ± 1.83 µM | IC50 [2]: 9.04 ± 2.43 µM | IC50 ([4]; Example 8, read-out: IC50 UACC 903): 2360 nM | IC50 ([4]; Table 4, read-out: IC50 Metastatic Melanoma Cell line UACC903): 2360 ± 250 nM | IC50 ([4]; Table 5, read-out: IC50 Melanoma (UACC903)): 2360 ± 250 nM | IC50 ([4]; Table 6, read-out: IC50 Metastatic melanoma UACC 903): 2360 ± 250 nM | IC50 ([4]; Table 7, read-out: IC50 (UACC903)): 2360 nM | IC50 [5]: 4.54 ± 0.87 µM | IC50 [6]: 10.7 ± 0.87 µM | IC50 [7]: 22.4 ± 3.31 µM
SMILES: CNC[C@]1(C)CCC[C@]2(C)C3CCC(C(C)C)=CC3=CCC12 (stereo partly drawn) [Compound 4b, {[(1R,4aR)-1,4a-dimethyl-7-(propan-2-yl)-1,2,3,4,4a,4b,5,6,10,10a-decahydrophenanthren-1-yl]methyl}(methyl)amine]
Selectivity ratio, fibroblasts versus 1205Lu [1, 8]: ~4 | IC50 [3]: 9.33 ± 1.27 µM | Selectivity ratio, fibroblasts versus UACC903 [4, 8]: ~4
